Data on 13 molecules can be found in PubChem BioAssay (NCI).

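How tested: cells in 96-well plates exposed to compound for 48 hours at five concentrations. Abbreviation: GI50, concentration required for 50% inhibition of growth. At the TGI there is no net growth.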

Test systems include U251 CNS; EKVX NSCLC; SNB-19 CNS; SK-MEL-5 melanoma; SF-539 CNS; DU-145 prostate; SN12C renal; UACC-257 melanoma; PC-3 prostate; HCC-2998 colon.
Holding throughout (experiment): NCI-60 cell line screen, 48 h

For `O=C(Nc1cccc(C(F)(F)F)c1)c1ccc(NC2=C(Cl)C(=O)N(Cc3ccc(Cl)cc3Cl)C2=O)cc1`, the GI50 in the experiment with U251 CNS was 5.82 µM; with EKVX NSCLC, 20.3 µM; in the experiment with SNB-19 CNS it was 22.8 µM; in the experiment with SK-MEL-5 melanoma, 1780 nM; with SF-539 CNS, 8.06 µM; with DU-145 prostate, 11.8 µM. Moreover, the GI50 in the experiment on SN12C renal is 17.4 µM; with UACC-257 melanoma, 15.9 µM; with PC-3 prostate, 4.64 µM. In addition, the TGI in the experiment with U251 CNS is 19 µM; in the experiment with EKVX NSCLC, 48.6 µM; in the experiment on SNB-19 CNS, more than 100 µM; in the experiment on SK-MEL-5 melanoma it was 3.5 µM; in the experiment on SF-539 CNS, 21.5 µM; in the experiment with DU-145 prostate it was 30.2 µM. The results for the TGI in the experiment with SN12C renal, with UACC-257 melanoma and in the experiment on PC-3 prostate were 32.8 µM, 42.2 µM and 15.2 µM, respectively.

As for `NC(N)=NCCCC(=O)O`, the TGI with U251 CNS, in the experiment on EKVX NSCLC, in the experiment on SNB-19 CNS, in the experiment on SK-MEL-5 melanoma, in the experiment on SF-539 CNS and in the experiment with DU-145 prostate was more than 100 µM throughout. For the same molecule, the TGI with SN12C renal and in the experiment with PC-3 prostate was more than 100 µM throughout.

`CN1C(=O)c2ccccc2NC(=O)C12O[C@@H]2c1ccccc1` (stereo not given in full): the TGI in the experiment with U251 CNS, in the experiment with EKVX NSCLC, in the experiment with SK-MEL-5 melanoma, in the experiment with SF-539 CNS, with DU-145 prostate and with HCC-2998 colon was more than 100 µM throughout. Besides, the TGI in the experiment with SN12C renal, in the experiment with UACC-257 melanoma and with PC-3 prostate was more than 100 µM in each case.

Consider `COc1cc(Cl)cc(-c2nn(-c3cccc(NC(=O)c4ccc(N5CCOCC5)c(C(F)(F)F)c4)c3)cc2-c2ccncc2)c1`, for which the GI50 with U251 CNS is 5.03 µM; in the experiment on SNB-19 CNS, more than 100 µM; with SK-MEL-5 melanoma, 16500 nM; in the experiment with SF-539 CNS, 3.74 µM; in the experiment on DU-145 prostate, more than 100 µM; in the experiment on HCC-2998 colon it was 6.06 µM. Further, the results for the GI50 in the experiment on SN12C renal, in the experiment with UACC-257 melanoma and in the experiment on PC-3 prostate were more than 100 µM, 21.7 µM and 3.3 µM, respectively. Also, the TGI in the experiment with U251 CNS was more than 100 µM; in the experiment on SNB-19 CNS, more than 100 µM; in the experiment on SK-MEL-5 melanoma it was more than 100 µM; in the experiment with SF-539 CNS it was more than 100 µM; in the experiment on DU-145 prostate it was more than 100 µM; in the experiment with HCC-2998 colon, 74.7 µM. In addition, the TGI in the experiment with SN12C renal was more than 100 µM; in the experiment on UACC-257 melanoma it was 69.1 µM; with PC-3 prostate, more than 100 µM.

Take `N=c1c2c(-c3ccccc3)c(-c3ccccc3)n(Cc3ccccc3)c2ncn1C1CCC(O)CC1` (stereo not given): the GI50 in the experiment on U251 CNS was 0.15 µM; with SNB-19 CNS, 1.21 µM; in the experiment on SK-MEL-5 melanoma it was 511 nM; in the experiment on SF-539 CNS, 0.639 µM; with DU-145 prostate, 0.351 µM; in the experiment on HCC-2998 colon it was 1.06 µM. For the same molecule, the GI50 is 0.389 µM with SN12C renal, 0.469 µM with UACC-257 melanoma and 0.466 µM in the experiment with PC-3 prostate. Also, the TGI in the experiment with U251 CNS was 5.3 µM; with SNB-19 CNS, 17.9 µM; with SK-MEL-5 melanoma it was 1.85 µM; in the experiment on SF-539 CNS it was 2.24 µM; with DU-145 prostate, 15.3 µM; with HCC-2998 colon, 5.03 µM. Further, the TGI with SN12C renal is 16.4 µM; with UACC-257 melanoma, 1.91 µM; in the experiment with PC-3 prostate, 5.08 µM.

Consider `COC(=O)/C(C#N)=C1\N=NNN1c1ccc(OC)cc1`, for which the TGI in the experiment with U251 CNS, with EKVX NSCLC, with SNB-19 CNS, in the experiment with SK-MEL-5 melanoma, with SF-539 CNS and with HCC-2998 colon was more than 100 µM each time. Besides, the TGI in the experiment with SN12C renal and in the experiment on UACC-257 melanoma was more than 100 µM in each case.

For `COc1ccc2c(c1OCC(=O)O)C(=O)C(CCC(=O)O)CC2` (stereo not given), the TGI with U251 CNS, in the experiment on EKVX NSCLC, with SNB-19 CNS, with SK-MEL-5 melanoma, in the experiment on SF-539 CNS and in the experiment on HCC-2998 colon was more than 100 µM throughout. The TGI with SN12C renal and with UACC-257 melanoma was more than 100 µM throughout.

Consider `CCN1CCN(c2cc(C)c3cc(NC(=O)c4ccc(OC)c(OC)c4)ccc3n2)CC1`, for which the GI50 is more than 50.5 µM in the experiment on U251 CNS; more than 61 µM in the experiment with SNB-19 CNS; 1170 nM with SK-MEL-5 melanoma; 5.44 µM with SF-539 CNS; more than 60.6 µM with DU-145 prostate; more than 57.3 µM in the experiment with HCC-2998 colon. Besides, the GI50 in the experiment on SN12C renal was more than 100 µM; in the experiment with UACC-257 melanoma, more than 40.4 µM; in the experiment on PC-3 prostate, 7.3 µM. Also, the TGI is more than 100 µM in the experiment on U251 CNS; more than 100 µM in the experiment with SNB-19 CNS; more than 42.3 µM in the experiment on SK-MEL-5 melanoma; more than 44.8 µM in the experiment on SF-539 CNS; more than 100 µM in the experiment with DU-145 prostate; more than 100 µM with HCC-2998 colon. The TGI with SN12C renal was more than 100 µM; in the experiment on UACC-257 melanoma it was more than 58.9 µM; in the experiment on PC-3 prostate, more than 100 µM.

Take `CC(C)C1=Cc2ccc3c(c2C(=O)C1=O)CCCC3(C)C`: the TGI in the experiment with U251 CNS was determined as 27.2 µM; with EKVX NSCLC, 28.6 µM; in the experiment with SNB-19 CNS, 31.3 µM; in the experiment on SK-MEL-5 melanoma, 24.9 µM; with SF-539 CNS it was 11 µM; with HCC-2998 colon it was 32.7 µM. In addition, the TGI with SN12C renal stood at 13.9 µM; in the experiment with UACC-257 melanoma, 8.64 µM.

For the molecule `COc1ccc(CCN(C)C2CCC(C#N)(c3ccc(OC)c(OC)c3)CC2)cc1OC` (stereo not given), the TGI in the experiment with U251 CNS, in the experiment on EKVX NSCLC, in the experiment with SNB-19 CNS, in the experiment with SK-MEL-5 melanoma, in the experiment on SF-539 CNS and in the experiment on HCC-2998 colon was more than 100 µM throughout. The TGI in the experiment with SN12C renal and in the experiment on UACC-257 melanoma was more than 100 µM in each case.

In the case of `CC1(C)COC(c2cccc3c2C(=O)c2cccc(Cl)c2-3)=N1`, the TGI is more than 100 µM in the experiment on U251 CNS; more than 100 µM with EKVX NSCLC; more than 100 µM in the experiment on SNB-19 CNS; 73.4 µM in the experiment with SK-MEL-5 melanoma; more than 100 µM in the experiment on SF-539 CNS; more than 100 µM with HCC-2998 colon. Moreover, the TGI with SN12C renal and in the experiment on UACC-257 melanoma was more than 100 µM throughout.

In the case of `c1ccc2c(OCCSCCCCCCCCCCSCCOc3cccc4ccccc34)cccc2c1`, the TGI with U251 CNS, with EKVX NSCLC, in the experiment with SNB-19 CNS, in the experiment with SK-MEL-5 melanoma, with SF-539 CNS and in the experiment on HCC-2998 colon was more than 100 µM each time. Also, the TGI with SN12C renal and with UACC-257 melanoma was more than 100 µM in each case.

Take `CSc1nc(SC)c2c(C#N)[nH]nc2n1`: the TGI with U251 CNS, in the experiment with EKVX NSCLC, in the experiment on SNB-19 CNS, in the experiment with SK-MEL-5 melanoma, with SF-539 CNS and with HCC-2998 colon was more than 100 µM throughout. In addition, the TGI with SN12C renal and in the experiment on UACC-257 melanoma was more than 100 µM throughout.
